Key:
[1] = inadvertent extravasation; far greater concentration and dosage than in the paste; tenderness, erythema, skin discoloration, swelling; cited from earlier work
[2] = Mixing compatibility of additives with zinc chloride fixative paste; type: physicochemical; settings: for mixing with the zinc chloride fixative paste: additive in low concentration
Method: Podophyllin is a natural plant extract from the dried roots of either Podophyllum peltatum or P. emodi. It is an antimitotic agent used for many years in the treatment of human warts. (Fitzpatrick T B, et al. Dermatology in General Medicine, McGraw-Hill 1999, p. 2724.) Podophyllin is added at a 0.01% concentration, although a wide range of concentrations may be acceptable from 0.001% to 90% or greater, depending on the zinc chloride formulation employed.

HIV = settings: cited from earlier work

| Structure (SMILES) | local skin reactions [1] | mixing with the zinc chloride fixative paste [2] | paste consistency and viscosity after addition ([2]; paclitaxel in low concentration) | inactivation of HIV (HIV) |
| --- | --- | --- | --- | --- |
| CC(=O)O[C@H]1C(=O)[C@@]2(C)[C@H]([C@H](OC(=O)c3ccccc3)[C@]3(O)C[C@H](OC(=O)[C@H](O)[C@@H](NC(=O)c4ccccc4)c4ccccc4)C(C)=C1C3(C)C)[C@]1(OC(C)=O)CO[C@@H]1C[C@@H]2O [paclitaxel] | mild | mixes completely and fully | remains unchanged | – |
| O=c1[nH]cc(F)c(=O)[nH]1 [fluorouracil] | – | completely compatible and mix fully | – | – |
| [Cl-].[Cl-].[Zn+2] [zinc chloride] | – | – | – | inactivated |
| NC(N)=O [urea] | – | completely compatible and mix fully | – | – |
